#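 Five compound concentrations were applied to cells in 96-well plates for 48 hours; endpoints were derived by simple linear interpolation of the resulting dose-response curve. At the TGI there is no net growth.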
# Experiments:
# Assay in all cases: inhibition of tumour cell growth, NCI panel, 48 h
# MDA-MB-231 breast = tested on: MDA-MB-231 breast
# NCI-H23 lung = tested on: NCI-H23 lung
# NCI/ADR-RES ovarian = tested on: NCI/ADR-RES ovarian
# OVCAR-5 ovarian = tested on: OVCAR-5 ovarian
# SF-268 CNS = tested on: SF-268 CNS
# OVCAR-4 ovarian = tested on: OVCAR-4 ovarian
# UACC-257 melanoma = tested on: UACC-257 melanoma
# KM12 colon = tested on: KM12 colon
# SK-MEL-2 melanoma = tested on: SK-MEL-2 melanoma
# HOP-62 NSCLC = tested on: HOP-62 NSCLC
# NCI-H460 lung = tested on: NCI-H460 lung
# ACHN renal = tested on: ACHN renal
# LOX IMVI melanoma = tested on: LOX IMVI melanoma
# DU-145 prostate = tested on: DU-145 prostate
# SW-620 colon = tested on: SW-620 colon
# SK-OV-3 ovarian = tested on: SK-OV-3 ovarian
# 786-0 renal = tested on: 786-0 renal
# SK-MEL-28 melanoma = tested on: SK-MEL-28 melanoma
# MCF7 breast = tested on: MCF7 breast
# HS 578T breast = tested on: HS 578T breast
# IGROV1 ovarian = tested on: IGROV1 ovarian
# OVCAR-8 ovarian = tested on: OVCAR-8 ovarian
# MALME-3M melanoma = tested on: MALME-3M melanoma
# M14 melanoma = tested on: M14 melanoma
# MDA-MB-435 = tested on: MDA-MB-435
# HCT-116 colon = tested on: HCT-116 colon
# BT-549 breast = tested on: BT-549 breast
# SNB-75 CNS = tested on: SNB-75 CNS
# MOLT-4 leukemia = tested on: MOLT-4 leukemia
# TK-10 renal = tested on: TK-10 renal
# K-562 leukemia = tested on: K-562 leukemia
# RPMI-8226 leukemia = tested on: RPMI-8226 leukemia
# SF-295 CNS = tested on: SF-295 CNS
# U251 CNS = tested on: U251 CNS
# HCT-15 colon = tested on: HCT-15 colon
# SNB-19 CNS = tested on: SNB-19 CNS
# SF-539 CNS = tested on: SF-539 CNS
# OVCAR-3 ovarian = tested on: OVCAR-3 ovarian
# HOP-92 NSCLC = tested on: HOP-92 NSCLC
# T-47D breast = tested on: T-47D breast
# NCI-H522 lung = tested on: NCI-H522 lung
# CCRF-CEM leukemia = tested on: CCRF-CEM leukemia
# CAKI-1 renal = tested on: CAKI-1 renal
# A549 NSCLC = tested on: A549 NSCLC
# RXF 393 renal = tested on: RXF 393 renal
# HL-60(TB) leukemia = tested on: HL-60(TB) leukemia
# HCC-2998 colon = tested on: HCC-2998 colon
# SN12C renal = tested on: SN12C renal
# A498 renal = tested on: A498 renal
# UO-31 renal = tested on: UO-31 renal
# SK-MEL-5 melanoma = tested on: SK-MEL-5 melanoma
# PC-3 prostate = tested on: PC-3 prostate
# NCI-H226 lung = tested on: NCI-H226 lung
# EKVX NSCLC = tested on: EKVX NSCLC
# UACC-62 melanoma = tested on: UACC-62 melanoma
# HT29 colon = tested on: HT29 colon
# SR leukemia = tested on: SR leukemia
# COLO 205 colon = tested on: COLO 205 colon
compound,measurement,setting,value
O=C(CSCC(=O)N/N=C/c1cccs1)N/N=C/c1cccs1,TGI,MDA-MB-231 breast,> 100 µM
same,TGI,NCI-H23 lung,> 100 µM
same,TGI,NCI/ADR-RES ovarian,> 100 µM
same,TGI,OVCAR-5 ovarian,> 100 µM
same,TGI,SF-268 CNS,> 100 µM
same,TGI,OVCAR-4 ovarian,> 100 µM
same,TGI,UACC-257 melanoma,> 100 µM
same,TGI,KM12 colon,> 100 µM
same,TGI,SK-MEL-2 melanoma,> 100 µM
same,TGI,HOP-62 NSCLC,> 100 µM
same,TGI,NCI-H460 lung,> 100 µM
same,TGI,ACHN renal,> 100 µM
same,TGI,LOX IMVI melanoma,> 100 µM
same,TGI,DU-145 prostate,> 100 µM
same,TGI,SW-620 colon,> 100 µM
same,TGI,SK-OV-3 ovarian,> 100 µM
same,TGI,786-0 renal,> 100 µM
same,TGI,SK-MEL-28 melanoma,> 100 µM
same,TGI,MCF7 breast,> 100 µM
same,TGI,HS 578T breast,> 100 µM
same,TGI,IGROV1 ovarian,> 100 µM
same,TGI,OVCAR-8 ovarian,> 100 µM
same,TGI,MALME-3M melanoma,> 100 µM
same,TGI,M14 melanoma,> 100 µM
same,TGI,MDA-MB-435,> 100 µM
same,TGI,HCT-116 colon,> 100 µM
same,TGI,BT-549 breast,> 100 µM
same,TGI,SNB-75 CNS,> 100 µM
same,TGI,MOLT-4 leukemia,> 100 µM
same,TGI,TK-10 renal,> 100 µM
same,TGI,K-562 leukemia,> 100 µM
same,TGI,RPMI-8226 leukemia,> 100 µM
same,TGI,SF-295 CNS,> 100 µM
same,TGI,U251 CNS,> 100 µM
same,TGI,HCT-15 colon,> 100 µM
same,TGI,SNB-19 CNS,> 100 µM
same,TGI,SF-539 CNS,> 100 µM
same,TGI,OVCAR-3 ovarian,> 100 µM
same,TGI,HOP-92 NSCLC,> 100 µM
same,TGI,T-47D breast,> 100 µM
same,TGI,NCI-H522 lung,> 100 µM
same,TGI,CCRF-CEM leukemia,> 100 µM
same,TGI,CAKI-1 renal,> 100 µM
same,TGI,A549 NSCLC,> 100 µM
same,TGI,RXF 393 renal,> 100 µM
same,TGI,HL-60(TB) leukemia,> 100 µM
same,TGI,HCC-2998 colon,> 100 µM
same,TGI,SN12C renal,> 100 µM
same,TGI,A498 renal,> 100 µM
same,TGI,UO-31 renal,> 100 µM
same,TGI,SK-MEL-5 melanoma,> 100 µM
same,TGI,PC-3 prostate,> 100 µM
same,TGI,NCI-H226 lung,> 100 µM
same,TGI,EKVX NSCLC,> 100 µM
same,TGI,UACC-62 melanoma,> 100 µM
same,TGI,HT29 colon,> 100 µM
O=[N+]([O-])c1c(Br)cc(Br)c2c1Nc1c(ccc(Cl)c1Cl)S2,TGI,MDA-MB-231 breast,26.6 µM
same,TGI,NCI-H23 lung,29.6 µM
same,TGI,NCI/ADR-RES ovarian,75.1 µM
same,TGI,OVCAR-5 ovarian,33.7 µM
same,TGI,SF-268 CNS,38.6 µM
same,TGI,SR leukemia,> 26.8 µM
same,TGI,OVCAR-4 ovarian,28.7 µM
same,TGI,UACC-257 melanoma,21.2 µM
same,TGI,KM12 colon,20.5 µM
same,TGI,SK-MEL-2 melanoma,39.2 µM
same,TGI,HOP-62 NSCLC,34.9 µM
same,TGI,NCI-H460 lung,41.4 µM
same,TGI,ACHN renal,30.7 µM
same,TGI,LOX IMVI melanoma,8.78 µM
same,TGI,DU-145 prostate,27.3 µM
same,TGI,SW-620 colon,25.7 µM
same,TGI,SK-OV-3 ovarian,43 µM
same,TGI,786-0 renal,22.8 µM
same,TGI,SK-MEL-28 melanoma,31.4 µM
same,TGI,MCF7 breast,17.9 µM
same,TGI,HS 578T breast,> 100 µM
same,TGI,IGROV1 ovarian,31.2 µM
same,TGI,OVCAR-8 ovarian,13.6 µM
same,TGI,MALME-3M melanoma,27.7 µM
same,TGI,M14 melanoma,23.6 µM
same,TGI,MDA-MB-435,31.5 µM
same,TGI,HCT-116 colon,19.1 µM
same,TGI,BT-549 breast,8.87 µM
same,TGI,SNB-75 CNS,> 72 µM
same,TGI,MOLT-4 leukemia,7.6 µM
same,TGI,TK-10 renal,37.1 µM
same,TGI,COLO 205 colon,26.3 µM
same,TGI,K-562 leukemia,17.3 µM
same,TGI,RPMI-8226 leukemia,> 100 µM
same,TGI,SF-295 CNS,39.1 µM
same,TGI,U251 CNS,35.1 µM
same,TGI,HCT-15 colon,39.7 µM
same,TGI,SNB-19 CNS,35.1 µM
same,TGI,SF-539 CNS,41.2 µM
same,TGI,OVCAR-3 ovarian,9.5 µM
same,TGI,HOP-92 NSCLC,34.3 µM
same,TGI,T-47D breast,29.9 µM
same,TGI,NCI-H522 lung,20.5 µM
same,TGI,CCRF-CEM leukemia,7.49 µM
same,TGI,CAKI-1 renal,33.6 µM
same,TGI,A549 NSCLC,39.5 µM
same,TGI,RXF 393 renal,35.1 µM
same,TGI,HL-60(TB) leukemia,> 23.9 µM
same,TGI,HCC-2998 colon,28.8 µM
same,TGI,SN12C renal,27.9 µM
same,TGI,A498 renal,39.1 µM
same,TGI,UO-31 renal,20.5 µM
same,TGI,SK-MEL-5 melanoma,30.2 µM
same,TGI,PC-3 prostate,35 µM
same,TGI,NCI-H226 lung,31.6 µM
same,TGI,EKVX NSCLC,30.9 µM
same,TGI,UACC-62 melanoma,33.1 µM
same,TGI,HT29 colon,26 µM
CCOC(=O)C1=C(c2ccccc2)N(C)c2ccccc2S1,TGI,MDA-MB-231 breast,58.9 µM
same,TGI,NCI-H23 lung,60.4 µM
same,TGI,NCI/ADR-RES ovarian,65.1 µM
same,TGI,OVCAR-5 ovarian,> 100 µM
same,TGI,SF-268 CNS,97.3 µM
same,TGI,SR leukemia,> 100 µM
same,TGI,OVCAR-4 ovarian,> 100 µM
same,TGI,UACC-257 melanoma,86.1 µM
same,TGI,SK-MEL-2 melanoma,45.3 µM
same,TGI,HOP-62 NSCLC,> 100 µM
same,TGI,NCI-H460 lung,63.6 µM
same,TGI,ACHN renal,58.5 µM
same,TGI,LOX IMVI melanoma,30.3 µM
same,TGI,DU-145 prostate,> 100 µM
same,TGI,SW-620 colon,> 100 µM
same,TGI,SK-OV-3 ovarian,> 100 µM
same,TGI,786-0 renal,> 100 µM
same,TGI,SK-MEL-28 melanoma,> 100 µM
same,TGI,MCF7 breast,78.8 µM
same,TGI,HS 578T breast,72.3 µM
same,TGI,IGROV1 ovarian,> 100 µM
same,TGI,OVCAR-8 ovarian,> 100 µM
same,TGI,MALME-3M melanoma,> 100 µM
same,TGI,M14 melanoma,> 100 µM
same,TGI,MDA-MB-435,> 100 µM
same,TGI,HCT-116 colon,73.3 µM
same,TGI,BT-549 breast,66.6 µM
same,TGI,SNB-75 CNS,> 100 µM
same,TGI,MOLT-4 leukemia,> 100 µM
same,TGI,TK-10 renal,> 100 µM
same,TGI,COLO 205 colon,> 100 µM
same,TGI,K-562 leukemia,> 100 µM
same,TGI,RPMI-8226 leukemia,66.5 µM
same,TGI,SF-295 CNS,> 100 µM
same,TGI,U251 CNS,49.1 µM
same,TGI,HCT-15 colon,31.3 µM
same,TGI,SNB-19 CNS,> 100 µM
same,TGI,SF-539 CNS,> 100 µM
same,TGI,OVCAR-3 ovarian,> 100 µM
same,TGI,HOP-92 NSCLC,> 100 µM
same,TGI,T-47D breast,73.9 µM
same,TGI,NCI-H522 lung,52.3 µM
same,TGI,CCRF-CEM leukemia,> 100 µM
same,TGI,CAKI-1 renal,> 100 µM
same,TGI,A549 NSCLC,> 100 µM
same,TGI,HL-60(TB) leukemia,> 100 µM
same,TGI,SN12C renal,58.2 µM
same,TGI,UO-31 renal,81 µM
same,TGI,SK-MEL-5 melanoma,30.3 µM
same,TGI,PC-3 prostate,> 100 µM
same,TGI,NCI-H226 lung,54.1 µM
same,TGI,EKVX NSCLC,> 100 µM
same,TGI,UACC-62 melanoma,53.2 µM
same,TGI,HT29 colon,46.1 µM

# Source: PubChem BioAssay (NCI)
